Experimental data published in US20180161290A1, “Dosage Regimen of Diaryl Sulfide Derivatives” (Novartis AG, priority 2010, published 2018).

Assays:
[1] = test system: healthy subjects; settings: 1.25 mg of FTY720; cited from earlier work
[2] = test system: healthy subjects; assay: Multiple ascending dose study in healthy subjects: blood lymphocyte levels; assay type: in vivo, human
Experimental: For example in tests on healthy subjects, the maximum percent decrease (geometric mean, 95% confidence interval) from pre-dose blood lymphocyte levels during once daily dosing of compound A for 14 days (28 days for the 2 mg dose level) in healthy subjects was 39% for 0.3 mg, 65% for 0.6 mg, 74% for 1.2 mg, 83% for 2 mg and 77% for 3 mg. The corresponding reduction in the placebo group was 29%, which may be explained by the normal lymphocyte level variability and the definition of the endpoint.
(§1) Multiple ascending doses of compound A were investigated in healthy subjects. 60 subjects in 5 cohorts (12 subjects per cohort) were dosed at 0.3 mg, 0.6 mg, 1.2 mg and 3 mg once daily for 14 days and at 2 mg for 28 days. In each cohort, subjects were randomised between compound A (9 subjects) and placebo (3 subjects).

[3] = test system: healthy subjects; assay: Multiple ascending dose study in healthy subjects: effect on heart rate (Example 1); assay type: in vivo, human; settings: 0.3, 0.6, 1.2, 2 and 3 mg once daily, hourly average heart rate, FIG. 1
Experimental: The effect on heart rate of 2-amino-2-[4-(3-benzyloxyphenylthio)-2-chlorophenyl]ethyl propane-1,3-diol (Compound A, or KRP203) was measured in healthy subjects over a period of 28 days and compared to placebo.
as §1
The day 28 graphic compares placebo and 2 mg dose.

[4] = test system: healthy male volunteers; assay: Double blind, placebo controlled, dose titration, once daily multiple oral dose study (Example 2); assay type: in vivo, human; settings: for hourly minimum HR (heart rate) change from baseline: FIG. 3
Experimental: A total of 56 healthy male volunteers were enrolled in a double blind, parallel, placebo controlled, dose titration, once daily, multiple oral dose study. 53 (95%) subjects completed the study.
Increasing doses of 2-amino-2-[4-(3-benzyloxyphenylthio)-2-chlorophenyl]ethyl-propane-1,3-diol (Compound A) starting at 0.3 mg o.d. or 0.5 mg o.d. and ending at the maximal therapeutic dose of 2 mg o.d. were administered to the subjects as specified in Table 1 below.
Each subject participated in a maximal 21-day Screening period, a Baseline period (Day −2), Run-in period (Day −1), a 21-day treatment period, 14-day Follow up period (with a Follow up visit on Day 35) and study completion assessments on Day 42. Subjects were assigned to one of the four groups (#1 or #2 dose titration group, placebo- or fixed-dose group) and received the once daily (o.d.) treatment in a double blinded manner.
On Day -1 (Run-in), all subjects received placebo and underwent baseline assessments including 24 hour Holter monitoring.
All the study drugs were administered between 8:00 and 8:30, immediately after modest breakfast started 30 min prior to dosing. Dosing was performed as closely as practically possible between the subjects (e.g. within 15 min).
The primary variable, the daily number of bradycardia episodes as defined in the primary objective, were modeled by means of a repeated Poisson model adjusted for the number of bradycardia episodes at Baseline, the day, the treatment, and the treatment-by-day interaction. Generalized Estimating Equations were used to estimate the parameters of the model, including the mean (and 95% CI) number of bradycardia episodes for each treatment group on each day.
The primary objective of the study was assessed from the estimated ratio, obtained from the model above, between the mean number of bradycardia episodes on each ‘dose increase day’ in each titration regimen versus the mean number of bradycardia episodes on Day 1 in the fixed-dose group, and from the 95% CI for this ratio.
The treatment effect in term of other measures of bradycardia, including the change from baseline in hourly (daily) minimum and mean heart rates, was also investigated using an appropriate model.

| SMILES | decrease in heart rate [1] | maximum percent decrease (geometric mean) from pre-dose blood lymphocyte levels ([2]; 0.3 mg once daily for 14 days) | maximum percent decrease (geometric mean) from pre-dose blood lymphocyte levels ([2]; 0.6 mg once daily for 14 days) | maximum percent decrease (geometric mean) from pre-dose blood lymphocyte levels ([2]; 1.2 mg once daily for 14 days) | maximum percent decrease (geometric mean) from pre-dose blood lymphocyte levels ([2]; 2 mg once daily for 28 days) | maximum percent decrease (geometric mean) from pre-dose blood lymphocyte levels ([2]; 3 mg once daily for 14 days) | decrease in heart rate following dosing [3] | hourly minimum HR (heart rate) change from baseline ([4]; after Day 13, all subjects) | safety and tolerability ([4]; both titration regimens) | AE (adverse events) profile ([4]; dose titration groups versus placebo) | hourly minimum HR (heart rate) change from baseline ([4]; fixed dose regimen 2 mg o.d.) | number of bradycardia episodes per day ([4]; titration regimens T#1 and T#2 versus fixed dose 2 mg day 1, FIG. 2) | SAEs (severe adverse events) ([4]; titration study, 21-day treatment) |
| --- | --- | --- | --- | --- | --- | --- | --- | --- | --- | --- | --- | --- | --- |
| CCCCCCCCc1ccc(CCC(N)(CO)CO)cc1 [FTY720] | approximately 8 beats/min | – | – | – | – | – | – | – | – | – | – | – | – |
| NC(CO)(CO)CCc1ccc(Sc2cccc(OCc3ccccc3)c2)cc1Cl [Compound A, 2-amino-2-[4-(3-benzyloxyphenylthio)-2-chlorophenyl]ethyl-propane-1,3-diol] | – | 39% | 65% | 74% | 83% | 77% | observed to increase with increasing dosage | no decrease in HR compared to matched baseline | safe and well tolerated | No discernable difference | maximum decrease in HR on Days 1 & 2 compared to the 2 titration regimens and resolved by day 5 | Both titration regimens had less bradycardic episodes compared to fixed dose day 1 | No SAEs (severe adverse events) were reported |
